# Laboratory results taken from ChEMBL document CHEMBL1201862, “PubChem BioAssay data set” (2004).
#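 A five-concentration, 48-hour dose response in 96-well plates underlies each endpoint, interpolated linearly between surrounding concentrations. Here, GI50 denotes the concentration required for 50% inhibition of growth.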 Active and inactive are the calls of the source. Rule as the data show it: active = GI50 up to about 1.1 µM and inactive = higher.
# Tests used:
# Assay in all cases: DTP human tumour cell line panel, 48 h
# NCI-H460 = tested on: NCI-H460
# MOLT-4 = tested on: MOLT-4
# CAKI-1 = tested on: CAKI-1
# A498 = tested on: A498
# OVCAR-3 = tested on: OVCAR-3
# SW-620 = tested on: SW-620
# SK-OV-3 = tested on: SK-OV-3
# SK-MEL-5 = tested on: SK-MEL-5
# UACC-257 = tested on: UACC-257
# SK-MEL-2 = tested on: SK-MEL-2
# Malme-3M = tested on: Malme-3M
# U-251 = tested on: U-251
# RXF 393 = tested on: RXF 393
# IGROV-1 = tested on: IGROV-1
# NCI-H226 = tested on: NCI-H226
# OVCAR-5 = tested on: OVCAR-5
# HCC 2998 = tested on: HCC 2998
# ACHN = tested on: ACHN
# TK-10 = tested on: TK-10
# M14 = tested on: M14
Compound,GI50 (NCI-H460),GI50 (MOLT-4),GI50 (CAKI-1),GI50 (A498),GI50 (OVCAR-3),GI50 (SW-620),GI50 (SK-OV-3),GI50 (SK-MEL-5),GI50 (UACC-257),GI50 (SK-MEL-2),GI50 (Malme-3M),GI50 (U-251),GI50 (RXF 393),GI50 (IGROV-1),GI50 (NCI-H226),GI50 (OVCAR-5),GI50 (HCC 2998),GI50 (ACHN),GI50 (TK-10),GI50 (M14)
Cc1c2ccncc2c(C)c2c1[nH]c1ccc(OCCN(C)C)cc12,0.0308 µM (active),0.0193 µM (active),0.463 µM (active),1.19 µM (inactive),0.333 µM (active),0.0353 µM (active),0.501 µM (active),1.35 µM (inactive),0.92 µM (active),0.658 µM (active),1.16 µM (inactive),0.209 µM (active),0.265 µM (active),0.388 µM (active),0.365 µM (active),0.433 µM (active),0.22 µM (active),–,–,–
CCOC(=O)c1c(Cl)nc2ccccc2c1N=[N+]=[N-],23.7 µM (inactive),24.2 µM (inactive),20.2 µM (inactive),> 100 µM (inactive),19.5 µM (inactive),19.5 µM (inactive),70.5 µM (inactive),44.5 µM (inactive),21.8 µM (inactive),19.2 µM (inactive),34.8 µM (inactive),24.5 µM (inactive),44.6 µM (inactive),22 µM (inactive),32.1 µM (inactive),19.3 µM (inactive),80.4 µM (inactive),40.3 µM (inactive),31.9 µM (inactive),19.1 µM (inactive)
O=C(O)/C(O)=C1/C=C(c2ccccc2)c2ccccc21,26.4 µM (inactive),14.8 µM (inactive),31.4 µM (inactive),31.7 µM (inactive),–,20 µM (inactive),30.4 µM (inactive),17.7 µM (inactive),20.8 µM (inactive),16.7 µM (inactive),25.5 µM (inactive),18.7 µM (inactive),19.4 µM (inactive),22.1 µM (inactive),21.6 µM (inactive),23.6 µM (inactive),21.5 µM (inactive),30.1 µM (inactive),31.6 µM (inactive),21.1 µM (inactive)
O=C(Nc1nccs1)c1c(O)nc2sccn2c1=O,> 10 µM (inactive),> 10 µM (inactive),> 10 µM (inactive),> 10 µM (inactive),> 10 µM (inactive),> 10 µM (inactive),> 10 µM (inactive),> 10 µM (inactive),–,> 10 µM (inactive),> 10 µM (inactive),> 10 µM (inactive),> 10 µM (inactive),> 10 µM (inactive),> 10 µM (inactive),> 10 µM (inactive),> 10 µM (inactive),> 10 µM (inactive),> 10 µM (inactive),> 10 µM (inactive)
O=C1CCCC1C(O)(C(F)(F)Cl)C(F)(F)Cl (centres undefined),> 10 µM (inactive),> 10 µM (inactive),> 10 µM (inactive),> 10 µM (inactive),> 10 µM (inactive),> 10 µM (inactive),> 10 µM (inactive),> 10 µM (inactive),> 10 µM (inactive),> 10 µM (inactive),> 10 µM (inactive),> 10 µM (inactive),> 10 µM (inactive),> 10 µM (inactive),> 10 µM (inactive),> 10 µM (inactive),> 10 µM (inactive),> 10 µM (inactive),> 10 µM (inactive),> 10 µM (inactive)
CC(=O)c1ccc(NC(=O)/C(CC(=O)/C=C/c2ccccc2)=N/NC(N)=S)cc1,68.4 µM (inactive),46.5 µM (inactive),> 100 µM (inactive),> 100 µM (inactive),> 100 µM (inactive),> 100 µM (inactive),> 100 µM (inactive),43.7 µM (inactive),> 100 µM (inactive),> 100 µM (inactive),> 100 µM (inactive),> 100 µM (inactive),> 100 µM (inactive),53.1 µM (inactive),> 100 µM (inactive),> 100 µM (inactive),> 100 µM (inactive),66.1 µM (inactive),> 100 µM (inactive),> 100 µM (inactive)
COc1cc(C(=O)CC2OC(=O)C(Cl)=C2Cl)ccc1Cl (centres undefined),> 100 µM (inactive),> 100 µM (inactive),> 100 µM (inactive),> 100 µM (inactive),> 100 µM (inactive),> 100 µM (inactive),> 100 µM (inactive),> 100 µM (inactive),> 100 µM (inactive),> 100 µM (inactive),> 100 µM (inactive),> 100 µM (inactive),> 100 µM (inactive),> 100 µM (inactive),> 100 µM (inactive),> 100 µM (inactive),> 100 µM (inactive),> 100 µM (inactive),> 100 µM (inactive),> 100 µM (inactive)
C=C=C(Sc1ccccc1)C(C)(C)OC(C)=O,21.1 µM (inactive),34.5 µM (inactive),34.9 µM (inactive),19 µM (inactive),16.3 µM (inactive),17.6 µM (inactive),25.1 µM (inactive),15.8 µM (inactive),17.2 µM (inactive),17.9 µM (inactive),18.3 µM (inactive),16.9 µM (inactive),14.7 µM (inactive),17.6 µM (inactive),21.4 µM (inactive),20.3 µM (inactive),20.9 µM (inactive),> 10 µM (inactive),32.5 µM (inactive),17.4 µM (inactive)
O=C(C1=C(C(=O)c2ccccc2)SC2(S1)C(C(=O)c1ccccc1)=C(C(=O)c1ccccc1)Sc1c2ssc1=O)c1ccccc1,31.5 µM (inactive),1.11 µM (active),> 100 µM (inactive),17.2 µM (inactive),67.6 µM (inactive),22 µM (inactive),49.3 µM (inactive),43.6 µM (inactive),> 100 µM (inactive),99.1 µM (inactive),> 100 µM (inactive),32.6 µM (inactive),34.8 µM (inactive),> 100 µM (inactive),27 µM (inactive),26.8 µM (inactive),55.8 µM (inactive),37.5 µM (inactive),70.1 µM (inactive),37.3 µM (inactive)
Cc1cc(C)c2c(O)cc(-c3cccc4ccccc34)nc2n1,0.653 µM (active),0.863 µM (active),2.07 µM (inactive),0.474 µM (active),0.263 µM (active),0.448 µM (active),0.462 µM (active),0.381 µM (active),0.238 µM (active),0.291 µM (active),0.28 µM (active),0.426 µM (active),0.746 µM (active),1.49 µM (inactive),1.44 µM (inactive),2.29 µM (inactive),1.14 µM (inactive),0.594 µM (active),> 32.4 µM (inactive),0.745 µM (active)
Nc1ccc(S(=O)(=O)c2ccc(NCN3C(=O)NC(=O)C(=O)C3=O)cc2)cc1 [ALLANTODAPSONE],> 100 µM (inactive),> 100 µM (inactive),> 100 µM (inactive),> 100 µM (inactive),> 100 µM (inactive),> 100 µM (inactive),–,> 100 µM (inactive),> 100 µM (inactive),> 100 µM (inactive),> 100 µM (inactive),> 100 µM (inactive),> 100 µM (inactive),> 100 µM (inactive),> 100 µM (inactive),> 100 µM (inactive),> 100 µM (inactive),> 100 µM (inactive),> 100 µM (inactive),> 100 µM (inactive)
